Data: ChEMBL document CHEMBL1121542, “Beta-adrenergic blocking agents. 20. (3-Hydroxyprop-1-enyl)-substituted 1-(aryloxy)-3-(alkylamino)propan-2-ols” (J Med Chem, 1980)
Calls of active or inactive are those of the source. The calls are words filed in the database; no cut-off is given here.

Columns and labels:
[1] = system: Adrenergic receptor beta; test: Compound was evaluated in vivo for beta-Adrenoceptor blocking potency in cat and is expressed as total dose, infused over a period of 30 minutes, causing 50% inhibition of the tachycardia (iv administration); NA means not active; assay type: functional, organism-based; conditions: Felis catus
[2] = molecular target: Adrenergic receptor beta (Homo sapiens) (UniProt P08588+P07550+P13945); test: Compound was evaluated in vivo for beta-Adrenoceptor blocking potency in cat measured as the degree (percent) of blockade of the vasopressor response at the dose level; assay type: functional, organism-based; conditions: Felis catus; target entry is the homologue from another species

Row | SMILES | Inhibition [1] | Inhibition [2] [%]
1 | C=CCc1cc(/C=C/CO)ccc1OCC(O)CNC(C)(C)C (stereo not given) | inactive | 
2 | CC(C)(C)NCC(O)COc1ccc(/C=C/CO)cc1Cl (stereo not given) |  | 76
3 | CC(C)NCC(O)COc1cc(/C=C/CO)ccc1Br (stereo not given) | inactive | 
4 | CCOc1cc(/C=C/CO)ccc1OCC(O)CNC(C)C (stereo not given) | inactive | 
5 | COc1ccc(/C=C/CO)cc1OCC(O)CNC(C)C (stereo not given) | inactive | 
